This passage reports Kd results from patent US20250352675A1, “CA-IX TARGETING FLUORESCENT PROBES” (BRACCO IMAGING S.P.A., priority 2022, published 2025).

For this assay, the target named is T1, CA-IX (Homo sapiens, UniProt Q16790).
T1 construct: host or cells: HT-29 human colorectal adenocarcinoma cells
Description: Cellular binding assessment by flow cytometry on CA-IX expressing HT-29 cells. The conditions noted are these: 1 hour 30 min on ice, read-out: CA-IX receptor affinity (KD, to HT-29 cells). The procedure:
Human colon adenocarcinoma HT-29 cells (ATCC) used for the cellular binding experiments were cultured in McCoy's 5A medium (Sigma-Aldrich), supplemented with 10% HyClone Fetal Clone III (Euroclone), 2 mM L-glutamine (Sigma-Aldrich), 100 IU/mL penicillin, 0.1 mg/mL streptomycin, 0.25 μg/mL amphotericin B (Antibiotic-Antimycotic solution, Life Technologies) and cells were grown at 37° C. in humidified atmosphere enriched with 5% CO2. DPBS without MgCl2 and CaCl2 (Sigma-Aldrich) was used for cell rinsing.
Indeed, by using the anti-human CA-IX antibody MAB2188 (R&D Systems) and the DAKO […], according to the instruction of the datasheet, HT-29 cells were estimated to express about 150,000 CA-IX molecules per cell. Thus, HT-29 cells were used to measure the binding of all compounds to CA-IX, expressed in its physiological environment at the cell-surface. Briefly, HT-29 cells were detached with StemPro® Accutase® Cell Dissociation Reagent (Life Technologies), collected in DPBS and counted. At least 2·10^5 cells were placed in 1.5 mL tubes on ice and resuspended in 50-100 μL of cold FACS buffer (eBioscience™ Flow Cytometry Staining Buffer, Invitrogen) containing scalar concentrations of compounds (compound 1: range 1-5 μM; compounds 2 and 3: range 0-20 μM). After incubation (1 hour and 30 min on ice in the dark), cells were rinsed 3 times in 300 μL of cold FACS buffer by centrifugation (5 min, 4° C., 350 RCF), discarding the supernatant. Cell pellets were then resuspended in 200 μL of cold FACS buffer (or in a suitable volume in order to obtain no more than 1000 recorded events per μL during FACS analysis) and analyzed with the flow cytometer Accuri™ C6 (BD Biosciences). The mean cell-associated fluorescence was plotted against concentration and the dissociation constant at equilibrium (Ko) was inferred by mathematical fitting with GraphPad Prism v.9 software, according to the following equation: […]
where Bmax is the maximum specific binding in the same units as Y. KD is the equilibrium dissociation constant, in the same units as X. NS is the slope of nonspecific binding in Y units divided by X units. Background is the amount of nonspecific binding with no added Compound.
All compounds were analyzed in at least three independent experiments. The calculated KD are summarized in Table III and compared with the one obtained for HF-1.
For the compound `CC1(C)C(/C=C/C=C/C=C/C=C2/N(CCCCS(=O)(=O)O)c3ccc(C(=O)NC[C@H](O)[C@@H](O)[C@H](O)[C@H](O)CO)cc3C2(C)C)=[N+](CCCCS(=O)(=O)[O-])c2ccc(C(=O)NCCCCCCCC(=O)Nc3nnc(S(N)(=O)=O)s3)cc21` [Compound 1], the Kd – broadly, the concentration at which binding is half-saturated – was determined as 68 ± 4 nM.

For `CC1(C)C(/C=C/C=C/C=C/C=C2/N(CCCCS(=O)(=O)O)c3ccc(S(=O)(=O)O)cc3C2(C)C)=[N+](CCCCS(=O)(=O)[O-])c2ccc(C(=O)NCCCCCCCC(=O)Nc3nnc(S(N)(=O)=O)s3)cc21` [Compound 2], the Kd came out at 54 ± 3 nM.

As for `CC1(C)C(/C=C/C2=C(Oc3ccc(S(=O)(=O)O)cc3)C(=C/C=C3/N(CCCCS(=O)(=O)O)c4ccc(S(=O)(=O)O)cc4C3(C)C)/CCC2)=[N+](CCCCS(=O)(=O)[O-])c2ccc(C(=O)NCCCCCCCC(=O)Nc3nnc(S(N)(=O)=O)s3)cc21` [Compound 3], the Kd came out at 62 ± 4 nM.
